Key:
[1] = test system: chick retinal cells including neurons and glial cells; assay: Cell viability assay using mixed culture of chick retinal neurons and glial cells (LIVE/DEAD stain); assay type: cell-based; conditions: for percentage of dead cells in the exposure to light (mean): 2.78% in the absence of NK-5962
Text: Egg shells (Fukuda Breeders Co., Ltd., Okayama, Japan) were disinfected with 70% alcohol and 12-day-old chick embryos were removed from a small opening. The eyes at this embryonic stage were used because the outer segments of the retinal photoreceptor cells had not yet been developed. The eyes were enucleated and cut at the midperiphery of the globe and the anterior halves were removed together with the vitreous. The neurosensory retina at this embryonic stage could easily be peeled off from the eye cup. After peeling, retinal tissues were incubated in 0.25% trypsin, 1 mM ethylenediaminetetraacetic acid (EDTA) in Ca^2+, and Mg^2+-free Hanks’ balanced salt solution (HBSS) to disperse retinal cells. After centrifugation, the retinal cells were washed with Dulbecco’s modified Eagle’s medium (DMEM) and seeded at a concentration of 3.5 × 10^5 cell/mL in poly-L-lysine-coated wells of a 96-well multidish containing DMEM supplemented with 10% fetal bovine serum (FBS), 100 mg/L streptomycin, and 100 mg/L ampicillin.
In order to determine the types of cells, either neurons or glial cells derived from neurosensory retinal tissues, retinal cells following 2-day culture were stained for neuron-specific enolase and glial fibrillary acidic protein by immunocytochemistry. The majority of retinal cells at day 2 of the culture were neurons mixed with a small number of glial cells (Figure 2).
Retinal cells at a concentration of 3.5 × 10^5 cell/mL in 220 μL of DMEM with 10% FBS were cultured together with 20 μL of varying concentrations of NK-5962 for 2 days either under protection from light or under light from a fluorescent lamp at 230 lux for 9 h daily. The final concentrations of NK-5962 in the solution were 1.6 × 10^−5, 1.6 × 10^−6, and 1.6 × 10^−7 M. Cells were then incubated for 15 min with SYTO 10 Green fluorescent nucleic acid stain and DEAD Red nucleic acid stain (LIVE/DEAD Reduced Biohazard Viability/Cytotoxicity Kit: Molecular Probes; Thermo Fisher Scientific, Waltham, MA, USA) in HEPES-buffered saline. After being fixed with 4% glutaraldehyde in HEPES-buffered saline, live cells and dead cells were visualized with a 100 W mercury lamp as a light source under a fluorescence inverted microscope through a set of FITC and PI filters (Olympus IX71; Olympus Life Sciences, Tokyo, Japan). Images in the center of each well were captured with a CCD camera and stored in a computer. Three wells were assigned to each condition of incubation in one series of experiments and the entire procedure was repeated three times on different days to obtain nine results for each condition. Green live cells (stained with SYTO 10 Green) and orange dead cells (stained with both SYTO10 Green and DEAD RED) in the images for each well were counted and the percentage of dead cells to the total cells was analyzed statistically (Figure 2).

[2] = Reactive oxygen species (ROS) assay under simulated sunlight; assay type: physicochemical
Method: The ROS assay was designed to detect both singlet oxygen and superoxide generated from photo-irradiated chemicals. Briefly, singlet oxygen was measured in aqueous solution by spectrophotometrically monitoring the bleaching of p-nitrosodimethylaniline at 440 nm using imidazole as a selective acceptor of singlet oxygen. Samples containing the tested chemical (20 or 200 μM), p-nitrosodimethylaniline (50 μM), and imidazole (50 μM) in 20 mM sodium phosphate buffer (pH 7.4) were mixed in a tube. Each sample in 200 μL was transferred into a well of a plastic 96-well plate (clear, untreated, and flat-bottomed) and checked for precipitation under a microscope with an objective lens (×100) before light exposure. The plate was subjected to a measurement of absorbance at 440 nm using a microplate spectrophotometer. The plate was fixed in the quartz reaction container with a quartz cover and then irradiated with the simulated sunlight (ultraviolet A/B and visible light, 250 W/m^2, Suntest CPS plus, Atlas Material Testing Technology, Mount Prospect, IL, USA) for 1 h. After agitation on a plate shaker, the UV absorbance at 440 nm was measured. For the determination of superoxide, samples containing the test chemical (20 or 200 μM) and nitroblue tetrazolium (50 μM) in 20 mM sodium phosphate buffer were irradiated with the simulated sunlight for 1 h and the reduction in nitroblue tetrazolium was measured by the increase in absorbance at 560 nm in the same manner as the singlet oxygen determination. Experiments were performed in triplicate wells in three independent runs. As the final concentration, 200 μM test chemical solutions should be subjected to the ROS assay. However, when precipitation could be observed at 200 μM under the optical microscope, additional experiments should be performed under appropriate dilution (20, 50, or 100 μM).

Skin sensitization test = conditions: in vivo
[3] = Tests for the biological evaluation of medical devices (ISO 10993); conditions: data not shown
[4] = 0.16 μM NK-5962, exposure to light
[5] = 1.6 μM NK-5962, exposure to light
[6] = 16 μM NK-5962, exposure to light
[7] = 20 µM, simulated sunlight 1 h, mean ± standard deviation (n = 3)

CCCCN(CCCC)c1ccc(C=Cc2sc3ccccc3[n+]2CC(=O)O)cc1.[Br-] [NK-5962, 2-[2-[4-(dibutylamino)phenyl]ethenyl]-3-carboxymethylbenzothiazolium bromide]
rate of the percentage of dead cells compared with the absence of NK-5962 [1, 4]: 105% | percentage of dead cells in the exposure to light (mean) [1, 4]: 2.93% | rate of the percentage of dead cells compared with the absence of NK-5962 [1, 5]: 68% | percentage of dead cells in the exposure to light (mean) [1, 5]: 1.89% | rate of the percentage of dead cells compared with the absence of NK-5962 [1, 6]: 42% | percentage of dead cells in the exposure to light (mean) [1, 6]: 1.17% | IC50 ([1]; Gallus gallus, corrected with non-binding ratio 0.34 in 10% FBS, read-out: IC50 based on free form of NK-5962): 1.7 µM | Reactive Oxygen Species Generation Singlet oxygen [2, 7]: 93 ± 14 ΔA440 × 1000 | Reactive Oxygen Species Generation Superoxide [2, 7]: Not detected | phototoxicity conclusion from ROS assay ([2]; low level of reactive oxygen species generation): less phototoxic | toxicity in the skin sensitization test (Skin sensitization test): not toxic | toxicity in all tests for the biological evaluation of medical devices (ISO 10993) [3]: safe
